This note sets out measurements from patent publication US20040063662A1, “Selenophene anti-tumor agents” (priority 1996, published 2004).

What is called GI50 is the concentration at which growth is held to half of that of the control. As a reminder, the IC50 is the concentration needed to halve the response being measured.

In brackets after ≈: the same amount, converted by molar mass. Several values for one entry are separate records, joined by “and”; a condition that tells them apart may be missing. Equal entries are not always repeated. Where two headings read alike, the source gives them in different places.

Series [1] relates to ras-transformed human bronchial epithelial cells (TBE). The experiment in a line: Selective cytotoxicity microculture assay, ras-transformed bronchial epithelial cells. In kind it is cell-based.
For series [2], the target named is T1, 50:50 mixture of recombinant mouse PKCα and mouse PKCβ2.
T1 construct: The enzymes are expressed in Sf9 insect cells from recombinant baculovirus and partially purified on DEAE-cellulose and Sephacryl 200 gel filtration
The experiment in a line: Protein Kinase C (PKC) screening assay. In kind it is biochemical. The conditions noted are these: Inhibition of Protein Kinase C. From the text: The Protein Kinase C (PKC) screening assay utilized in the following experiments is similar to standard PKC assays used by many investigators. Its primary features are that 1) the assay utilizes a 50:50 mixture of recombinant mouse PKCα and mouse PKCβ2; 2) employs histone as phosphate-accepting substrate; and 3) the PKC enzymatic activity is activated with phosphatidylserine, TPA and low concentration of calcium, so that both calcium and TPA are somewhat limiting for the extent of activation. In this manner the assay is sensitive to inhibitors of PKC activation. A more detailed description of the assay is provided in the following paragraphs.
The recombinant PKC formulation is a mixture (equal parts by activity) of mouse PKCα and mouse PKCβ2. The enzymes are expressed in Sf9 insect cells from recombinant baculovirus and partially purified on DEAE-cellulose and Sephacryl 200 gel filtration. Sufficient PKC is added to each reaction to provide approximately 4 pmols phosphate transferred in 30 minute (per total reaction.) The reaction is linear over the time when 4 pmols of phosphate is transferred and the reaction remains linear well beyond this time frame.
The PKC screening assay is performed in 96 well polystyrene U bottom micro titer plates, in a total reaction volume of 50 ul. Solution manipulations are performed during the assay utilize a Rainin, motorized EDP-plus M8 eight-channel micropipettor.
In some cases 50% DMSO:water, water, or methanol is substituted (if essential) for the solvent. At least 25 μl of the highest concentration sample to be assayed is transferred to a well in a 96 well U-bottom polystyrene assay plate. Serial 5-fold or 10-fold dilutions (depending on the dose-range desired) are made using the EDP-plus M8 eight-channel pipettor in dilute mode and mixing by repipetting. Using the 8-channel pipettor, 2 μl of each dilution is transferred to the appropriate wells of the plate(s) to be used for each assay. Duplicate assays are performed for each dose, with each assay, allowing six wells (half the row) for three-dose assays, or 12 wells (the whole row) for six-dose assays. In general, extracts and fractions are assayed at three doses: 400, 40 an 4 ug/ml, while pure compounds are tested at six doses: 400, 80, 16, 3.2, 0.64, 0.128 ([…]).

Series [3] in a line: Selective cytotoxicity microculture assay, human renal carcinoma. To be noted: human, SCI (selectively cytotoxicity index), GI50 (RPTEC)/GI50 (A-498).
The test system of series [4] is human renal carcinoma cells (A-498). The description is as above.
The subject of series [5] is normal human renal cells (RPTEC). In words: Selective cytotoxicity microculture assay, normal human renal cells. It is filed as cell-based.
The mark [6] stands for this setting: Homo sapiens, Epithelial cell, read-out: GI50.
Setting [7] is: Homo sapiens, A498, A-498 human renal carcinoma.

As to `OCc1ccc(-c2ccc(-c3ccc(CO)[se]3)[se]2)[se]1` [compound 675247], the GI50 in series [1] was 20 µg/mL (≈ 44500 nM); in series [1] (setting [6]), 30 µg/mL (≈ 66800 nM). For the same molecule, the IC50 in series [2] was 10 µg/mL (≈ 22300 nM). For the same molecule, the selectivity ratio in series [3] is over 1000.

As to `OCc1ccc(-c2ccc(-c3ccc(CO)[se]3)s2)[se]1` [compound 676632], in series [2], the IC50 was determined as 50 µg/mL (≈ 124000 nM). Besides, the selectivity ratio in series [3] was over 1000. Moreover, the GI50 is 0.0002 ng/mL (≈ 0.000497 nM) in series [4] (A-498 human renal carcinoma); 0.0003 ng/mL (≈ 0.000746 nM) in series [4] (setting [7]); 2 ng/mL and 0.3 ng/mL in series [5].

As for `OCc1ccc(-c2ccc(-c3ccc[se]3)[se]2)[se]1` [compound 675246], the GI50 amounted to 0.002 µg/mL (≈ 4.77 nM) in series [1], 0.003 µg/mL (≈ 7.16 nM) in series [1] (setting [6]) and 0.003 ng/mL (≈ 0.00716 nM) in series [4] (setting [7]). Besides, the IC50 in series [2] was 3 × 10^0 μg/ml. The selectivity ratio in series [3] was over 1000.

`OCc1ccc(-c2ccc(-c3ccc(CO)s3)[se]2)s1` [compound 675343]: the IC50 in series [2] came out at 30 µg/mL (≈ 84400 nM).

As for `OCc1ccc(-c2ccc(-c3ccc[se]3)s2)[se]1` [compound 676631], in series [2], the IC50 is 2 × 10^0 μg/ml.
